Assays:
Type in all cases: in vivo
[1] = tested on: redroot pigweed (Amaranthus retroflexus); assay: Test G Pre-Emergence Protocol; settings: Amaranthus retroflexus, pre-emergence, 312 h, evaluated after 13 days; for pest or weed control at 15.625 g/ha: 15.625 g ai/ha; for pest or weed control at 15.625 g/ha / pest or weed control at 250 g/ha: read-out: Pigweed, Redroot damage rating (100=total damage to plant; 0=no damage to plant); for pest or weed control at 62.5 g/ha: 62.5 g ai/ha, 100=total damage to plant, 0=no damage to plant, read-out: plant damage rating, Pigweed, Redroot; for pest or weed control at 250 g/ha: 250 g ai/ha
Procedure, shortened: (§1)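 Glasshouse pre-emergence test: soil-sown seeds, sprayed after 1 d at 15.625, 62.5 or 250 g/ha. Conditions 24/16° C day/night, 14 h light, 65% humidity, watering twice daily. Rating 13 d post-spray (100 = total damage).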

[2] = tested on: barnyardgrass (Echinochloa crus-galli); assay: Test G Pre-Emergence Protocol; settings: Echinochloa crus-galli, pre-emergence, 312 h, evaluated after 13 days; for pest or weed control at 15.625 g/ha: 15.625 g ai/ha, read-out: Barnyard grass damage rating (100=total damage to plant; 0=no damage to plant); for pest or weed control at 62.5 g/ha: 62.5 g ai/ha, 100=total damage to plant, 0=no damage to plant, read-out: plant damage rating, Barnyardgrass; for pest or weed control at 250 g/ha: 250 g ai/ha, read-out: Barnyardgrass damage rating (100=total damage to plant; 0=no damage to plant)
Procedure, shortened: as §1

[3] = tested on: giant foxtail (Setaria faberi); assay: Test G Pre-Emergence Protocol; settings: Setaria faberi, pre-emergence, 312 h, evaluated after 13 days; for pest or weed control at 15.625 g/ha: 15.625 g ai/ha; for pest or weed control at 15.625 g/ha / pest or weed control at 250 g/ha: read-out: Foxtail, Giant damage rating (100=total damage to plant; 0=no damage to plant); for pest or weed control at 62.5 g/ha: 62.5 g ai/ha, 100=total damage to plant, 0=no damage to plant, read-out: plant damage rating, Foxtail, Giant; for pest or weed control at 250 g/ha: 250 g ai/ha
Procedure, shortened: as §1

[4] = tested on: corn (Zea mays); assay: Test G Pre-Emergence Protocol; settings: Zea mays, pre-emergence, 312 h, evaluated after 13 days; for plant injury at 15.625 g/ha: 15.625 g ai/ha; for plant injury at 15.625 g/ha / plant injury at 250 g/ha: read-out: Corn damage rating (100=total damage to plant; 0=no damage to plant); for plant injury at 62.5 g/ha: 62.5 g ai/ha, 100=total damage to plant, 0=no damage to plant, read-out: plant damage rating, Corn; for plant injury at 250 g/ha: 250 g ai/ha
Procedure, shortened: as §1

[5] = tested on: ivy-leaved morning glory (Ipomoea hederacea); assay: Test G Pre-Emergence Protocol; settings: Ipomoea, pre-emergence, 312 h, evaluated after 13 days; for pest or weed control at 15.625 g/ha: 15.625 g ai/ha, read-out: Morning-glory, Ivy-leaved damage rating (100=total damage to plant; 0=no damage to plant); for pest or weed control at 62.5 g/ha: 62.5 g ai/ha, 100=total damage to plant, 0=no damage to plant, read-out: plant damage rating, Morningglory, Ivy-leaved; for pest or weed control at 250 g/ha: 250 g ai/ha, read-out: Morningglory, Ivy-leaved damage rating (100=total damage to plant; 0=no damage to plant)
Procedure, shortened: as §1

[6] = tested on: velvetleaf (Abutilon theophrasti); assay: Test G Pre-Emergence Protocol; settings: Abutilon theophrasti, pre-emergence, 312 h, evaluated after 13 days; for pest or weed control at 15.625 g/ha: 15.625 g ai/ha; for pest or weed control at 15.625 g/ha / pest or weed control at 250 g/ha: read-out: Velvetleaf damage rating (100=total damage to plant; 0=no damage to plant); for pest or weed control at 62.5 g/ha: 62.5 g ai/ha, 100=total damage to plant, 0=no damage to plant, read-out: plant damage rating, Velvetleaf; for pest or weed control at 250 g/ha: 250 g ai/ha
Procedure, shortened: as §1

[7] = tested on: redroot pigweed (Amaranthus retroflexus); assay: Test G Post-Emergence Protocol; settings: Amaranthus retroflexus, post-emergence, 312 h; for pest or weed control at 15.625 g/ha: 15.625 g ai/ha, evaluated after 13 days (100=total damage to plant; 0=no damage to plant), read-out: Pigweed, Redroot damage rating; for pest or weed control at 62.5 g/ha: 62.5 g ai/ha, read-out: Pigweed, Redroot damage rating (100=total damage to plant; 0=no damage to plant); for pest or weed control at 62.5 g/ha / pest or weed control at 250 g/ha: evaluated after 13 days; for pest or weed control at 250 g/ha: 250 g ai/ha, read-out: damage to plant, Pigweed, Redroot (100=total damage to plant; 0=no damage to plant)
Procedure, shortened: (§2)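 Sow in soil; grow 8 d (24/16 °C, 14 h light, 65% humidity); spray 15.625/62.5/250 g/ha in acetone:water 50:50 + 0.5% Tween 20; grow on, water twice daily; score damage 0–100 at 13 d.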

[8] = tested on: barnyardgrass (Echinochloa crus-galli); assay: Test G Post-Emergence Protocol; settings: Echinochloa crus-galli, post-emergence, 312 h; for pest or weed control at 15.625 g/ha: 15.625 g ai/ha, evaluated after 13 days (100=total damage to plant; 0=no damage to plant), read-out: Barnyardgrass damage rating; for pest or weed control at 62.5 g/ha: 62.5 g ai/ha, read-out: Barnyardgrass damage rating (100=total damage to plant; 0=no damage to plant); for pest or weed control at 62.5 g/ha / pest or weed control at 250 g/ha: evaluated after 13 days; for pest or weed control at 250 g/ha: 250 g ai/ha, read-out: damage to plant, Barnyardgrass (100=total damage to plant; 0=no damage to plant)
Procedure, shortened: as §2

[9] = tested on: giant foxtail (Setaria faberi); assay: Test G Post-Emergence Protocol; settings: Setaria faberi, post-emergence, 312 h; for pest or weed control at 15.625 g/ha: 15.625 g ai/ha, evaluated after 13 days (100=total damage to plant; 0=no damage to plant), read-out: Foxtail, Giant damage rating; for pest or weed control at 62.5 g/ha: 62.5 g ai/ha, read-out: Foxtail, Giant damage rating (100=total damage to plant; 0=no damage to plant); for pest or weed control at 62.5 g/ha / pest or weed control at 250 g/ha: evaluated after 13 days; for pest or weed control at 250 g/ha: 250 g ai/ha, read-out: damage to plant, Foxtail, Giant (100=total damage to plant; 0=no damage to plant)
Procedure, shortened: as §2

[10] = tested on: corn (Zea mays); assay: Test G Post-Emergence Protocol; settings: Zea mays, post-emergence, 312 h; for plant injury at 15.625 g/ha: 15.625 g ai/ha, evaluated after 13 days (100=total damage to plant; 0=no damage to plant), read-out: Corn damage rating; for plant injury at 62.5 g/ha: 62.5 g ai/ha, read-out: Corn damage rating (100=total damage to plant; 0=no damage to plant); for plant injury at 62.5 g/ha / plant injury at 250 g/ha: evaluated after 13 days; for plant injury at 250 g/ha: 250 g ai/ha, read-out: damage to plant, Corn (100=total damage to plant; 0=no damage to plant)
Procedure, shortened: as §2

[11] = tested on: ivy-leaved morning glory (Ipomoea hederacea); assay: Test G Post-Emergence Protocol; settings: Ipomoea, post-emergence, 312 h; for pest or weed control at 15.625 g/ha: 15.625 g ai/ha, evaluated after 13 days (100=total damage to plant; 0=no damage to plant), read-out: Morningglory, Ivy-leaved damage rating; for pest or weed control at 62.5 g/ha: 62.5 g ai/ha, read-out: Morningglory, Ivy-leaved damage rating (100=total damage to plant; 0=no damage to plant); for pest or weed control at 62.5 g/ha / pest or weed control at 250 g/ha: evaluated after 13 days; for pest or weed control at 250 g/ha: 250 g ai/ha, read-out: damage to plant, Morningglory, Ivy-leaved (100=total damage to plant; 0=no damage to plant)
Procedure, shortened: as §2

[12] = tested on: velvetleaf (Abutilon theophrasti); assay: Test G Post-Emergence Protocol; settings: Abutilon theophrasti, post-emergence, 312 h; for pest or weed control at 15.625 g/ha: 15.625 g ai/ha, evaluated after 13 days (100=total damage to plant; 0=no damage to plant), read-out: Velvetleaf damage rating; for pest or weed control at 62.5 g/ha: 62.5 g ai/ha, read-out: Velvetleaf damage rating (100=total damage to plant; 0=no damage to plant); for pest or weed control at 62.5 g/ha / pest or weed control at 250 g/ha: evaluated after 13 days; for pest or weed control at 250 g/ha: 250 g ai/ha, read-out: damage to plant, Velvetleaf (100=total damage to plant; 0=no damage to plant)
Procedure, shortened: as §2

Compound | pest or weed control at 15.625 g/ha [1] [%] | pest or weed control at 62.5 g/ha [1] [%] | pest or weed control at 250 g/ha [1] [%] | pest or weed control at 15.625 g/ha [2] [%] | pest or weed control at 62.5 g/ha [2] [%] | pest or weed control at 250 g/ha [2] [%] | pest or weed control at 15.625 g/ha [3] [%] | pest or weed control at 62.5 g/ha [3] [%] | pest or weed control at 250 g/ha [3] [%] | plant injury at 15.625 g/ha [4] [%] | plant injury at 62.5 g/ha [4] [%] | plant injury at 250 g/ha [4] [%] | pest or weed control at 15.625 g/ha [5] [%] | pest or weed control at 62.5 g/ha [5] [%] | pest or weed control at 250 g/ha [5] [%] | pest or weed control at 15.625 g/ha [6] [%] | pest or weed control at 62.5 g/ha [6] [%] | pest or weed control at 250 g/ha [6] [%] | pest or weed control at 15.625 g/ha [7] [%] | pest or weed control at 62.5 g/ha [7] [%] | also measured
CN1C[C@@H](c2ccc(C(F)(F)F)cc2)[C@H](C(=O)Nc2ncc[nH]2)C1=O (racemic) [Compound 1536] | 0 | 0 | 0 | 0 | 0 | 0 | 0 | 0 | 0 | 0 | 0 | 0 | 0 | 0 | 0 | 0 | 0 | 0 | 0 | 0 | pest or weed control at 250 g/ha [7]: 0%; pest or weed control at 15.625 g/ha [8]: 0%; pest or weed control at 62.5 g/ha [8]: 0%; pest or weed control at 250 g/ha [8]: 0%; pest or weed control at 15.625 g/ha [9]: 0%; pest or weed control at 62.5 g/ha [9]: 0%; pest or weed control at 250 g/ha [9]: 0%; plant injury at 15.625 g/ha [10]: 0%; plant injury at 62.5 g/ha [10]: 0%; plant injury at 250 g/ha [10]: 0%; pest or weed control at 15.625 g/ha [11]: 0%; pest or weed control at 62.5 g/ha [11]: 0%; pest or weed control at 250 g/ha [11]: 0%; pest or weed control at 15.625 g/ha [12]: 0%; pest or weed control at 62.5 g/ha [12]: 0%; pest or weed control at 250 g/ha [12]: 0%
COC(=O)c1nccc(NC(=O)[C@@H]2C(=O)N(C)C[C@H]2c2ccc(C(F)(F)F)cc2)n1 (racemic) [Compound 1537] | 0 | 0 | 0 | 0 | 0 | 0 | 0 | 0 | 0 | 0 | 0 | 0 | 0 | 0 | 0 | 0 | 0 | 0 | 0 | 0 | pest or weed control at 250 g/ha [7]: 0%; pest or weed control at 15.625 g/ha [8]: 0%; pest or weed control at 62.5 g/ha [8]: 0%; pest or weed control at 250 g/ha [8]: 0%; pest or weed control at 15.625 g/ha [9]: 0%; pest or weed control at 62.5 g/ha [9]: 0%; pest or weed control at 250 g/ha [9]: 0%; plant injury at 15.625 g/ha [10]: 0%; plant injury at 62.5 g/ha [10]: 0%; plant injury at 250 g/ha [10]: 0%; pest or weed control at 15.625 g/ha [11]: 0%; pest or weed control at 62.5 g/ha [11]: 0%; pest or weed control at 250 g/ha [11]: 0%; pest or weed control at 15.625 g/ha [12]: 0%; pest or weed control at 62.5 g/ha [12]: 0%; pest or weed control at 250 g/ha [12]: 0%
CCc1nccc(NC(=O)[C@@H]2C(=O)N(C)C[C@H]2c2ccc(C(F)(F)F)cc2)c1Cl (racemic) [Compound 1538] | 0 | 0 | 0 | 0 | 30 | 50 | 0 | 20 | 60 | 0 | 0 | 0 | 0 | 0 | 70 | 0 | 0 | 0 | 0 | 0 | pest or weed control at 250 g/ha [7]: 0%; pest or weed control at 15.625 g/ha [8]: 0%; pest or weed control at 62.5 g/ha [8]: 0%; pest or weed control at 250 g/ha [8]: 10%; pest or weed control at 15.625 g/ha [9]: 10%; pest or weed control at 62.5 g/ha [9]: 30%; pest or weed control at 250 g/ha [9]: 50%; plant injury at 15.625 g/ha [10]: 0%; plant injury at 62.5 g/ha [10]: 0%; plant injury at 250 g/ha [10]: 10%; pest or weed control at 15.625 g/ha [11]: 0%; pest or weed control at 62.5 g/ha [11]: 0%; pest or weed control at 250 g/ha [11]: 0%; pest or weed control at 15.625 g/ha [12]: 0%; pest or weed control at 62.5 g/ha [12]: 0%; pest or weed control at 250 g/ha [12]: 0%

Source: patent publication US12077503B2, “Substituted cyclic amides and their use as herbicides” (FMC CORPORATION, priority 2015, dated 2024)
